Measured values: publication PMC8412337, “Alpha-single chains of collagen type VI inhibit the fibrogenic effects of triple helical collagen VI in hepatic stellate cells” (PLoS ONE, 2021)

What was measured:
Assay type in all cases: cell-based
[1] = test system: primary rat HSC; assay: Morphology and αSMA protein expression (activation of HSCs)
Method: (§1) Activated HSC (third passage) were serum starved for 24 h in standard medium without FBS (starving medium), followed by dissociation with 500 μl 0.05% trypsin-EDTA (Biochrom, Berlin, Germany) and neutralization with 30 ml starving medium containing 1 g/l soybean trypsin inhibitor and 1 g/l ovalbumin. Alternatively, cells were scraped carefully with a cell-scraper (Costar, Cambridge, MA, USA) to exclude any potential effect of trypsin. […] For quantification of spreading, cells that had attached were counted 12 hours after plating and spreading efficiency was determined as percentage of plated cells in each group. De-novo DNA synthesis and apoptosis were assessed by morphological criteria, Cell death detection ELISA and FACS analysis as described below. […] After blocking the cells 1h with DMEM+1% FBS, the cells were incubated with primary antibodies against a-actin (Sigma-Aldrich, Taufkirchen, Germany, #A2547; dilution 1:200) and GFAP (Sigma-Aldrich, #G9269; dilution 1:20) followed by a washing step with PBS and the incubation with fluorescence-labeled secondary antibodies (Alexa Fluor 546 & Alexa Fluor 488, Molecular Probes, Eugene, USA, #A11030 & #A11034; dilution 1:100). […]
Dislodged cells were centrifuged at 800 x g/10 min and lysed with 100 μl lysis buffer. […] The emitted fluorescence was assessed at 570 nm in a SpectraMax Gemini EM (Molecular Devices, Biberach an der Riß, Germany). […]

[2] = test system: primary rat HSC; assay: DNA laddering (agarose gel electrophoresis); details: after 24 h; 30 μg/ml CVI; serum-starved primary rat HSC
Method: Cells were treated 24 h with 0% FBS, CI, CVI or 10% FBS. Equal cell numbers (1.5x10^6) were used to detect oligonucleosomes using the Apoptotic DNA Ladder Kit (Boehringer Mannheim, Germany) according to the manufacturer’s instructions. The isolated DNA from each group was electrophoresed on a 1.5% Agarose-Gel at 75 V for 1.5 hours, stained with ethidium bromide and visualized via an UV light source (302 nm).

[3] = test system: primary rat HSCs; assay: [3H]-thymidine incorporation, de-novo DNA synthesis; details: primary rHSCs
[4] = test system: primary rat HSCs; assay: Spreading and survival after serum withdrawal, phase contrast microscopy; details: within 24 h; medium lacking FBS; 30 μg/ml collagen; three independent experiments
Method: as §1

## CVI: Human collagen VI isolated from placentas by pepsin digestion; triple helical, soluble
[1]; freshly isolated rat HSCs, immunostaining, detected as early as three days, immunoblotting
  protein expression of αSMA: strongly induced
[1]; primary rat HSC, serum-reduced medium containing 1% FBS, five days
  formation of cytoplasmic extensions: induced the formation of distinct cytoplasmic extensions
[2]
  apoptosis-associated DNA laddering: only faint
[3]; CVI at 10 μg/ml, within 24 hours, three independent experiments
  de-novo DNA synthesis ([3H]-thymidine incorporation): stimulated a robust de-novo DNA synthesis
[3]; CVI from 10 μg/ml up to 100 μg/ml, concentration dependent
  de-novo DNA synthesis ([3H]-thymidine incorporation) at increasing concentration: equaling the effects of 10% FBS
[4]
  suppression of growth factor withdrawal-induced apoptosis (attachment, cell shrinkage): potently suppressed
